Source: patent US10183914B2 (BAYER CROPSCIENCE AKTIENGESELLSCHAFT, priority 2014, dated 2019)

Legend:
[1] = logp (HCOOH), physicochemical characterization
Oryza sativa [2] = test: Pre-emergence herbicidal effect and crop plant compatibility; assay type: in vivo; conditions: 320 g/ha, 3 weeks
Outline: (§1)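 Sandy loam, seeds covered with soil, WP/EC sprayed on soil surface; 600–800 L/ha water + 0.2% wetter; greenhouse 3 wk; visual % damage vs untreated.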

Zea mays [3] = test: as above; assay type: in vivo; conditions: 3 weeks
Outline: as §1

Abutilon theophrasti = test: Pre-emergence herbicidal effect; assay type: in vivo; conditions: 320 g/ha, 3 weeks
Outline: as §1

Alopecurus myosuroides [4] = test: Pre-emergence herbicidal effect; assay type: in vivo; conditions: 3 weeks
Outline: as §1

Amaranthus retroflexus = test: Pre-emergence herbicidal effect; assay type: in vivo; conditions: 3 weeks
Outline: as §1

Avena fatua = test: Pre-emergence herbicidal effect; assay type: in vivo; conditions: 3 weeks
Outline: as §1

Echinochloa crus-galli [5] = test: Pre-emergence herbicidal effect; assay type: in vivo; conditions: 3 weeks
Outline: as §1

Ipomoea purpurea [6] = test: Pre-emergence herbicidal effect; assay type: in vivo; conditions: 320 g/ha, 3 weeks
Outline: as §1

Lolium multiflorum [7] = test: Pre-emergence herbicidal effect; assay type: in vivo; conditions: 3 weeks
Outline: as §1

Matricaria inodora = test: Pre-emergence herbicidal effect; assay type: in vivo; conditions: 3 weeks
Outline: as §1

Polygonum convolvulus = test: Pre-emergence herbicidal effect; assay type: in vivo; conditions: 3 weeks
Outline: as §1

Setaria viridis [8] = test: Pre-emergence herbicidal effect; assay type: in vivo; conditions: 3 weeks
Outline: as §1

Stellaria media = test: Pre-emergence herbicidal effect; assay type: in vivo; conditions: 3 weeks
Outline: as §1

Veronica persica = test: Pre-emergence herbicidal effect; assay type: in vivo; conditions: 3 weeks
Outline: as §1

Viola tricolor = test: Pre-emergence herbicidal effect; assay type: in vivo; conditions: 3 weeks
Outline: as §1

Oryza sativa [9] = test: Post-emergence herbicidal effect and crop plant compatibility; assay type: in vivo; conditions: visual scoring after about 3 weeks
Outline: (§2)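 Visual scoring about 3 weeks after treatment rated damage against untreated plants, from 0% (like control) to 100% (dead). Treatment was a post-emergence foliar spray of WP/EC formulations in 600–800 L/ha water with 0.2% wetting agent. Plants were sprayed at the one-leaf stage, 2–3 weeks after sowing in sandy loam.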

Echinochloa crus-galli [10] = test: Post-emergence herbicidal effect; assay type: in vivo; conditions: visual scoring after about 3 weeks
Outline: as §2

Lolium multiflorum [11] = test: Post-emergence herbicidal effect; assay type: in vivo; conditions: visual scoring after about 3 weeks
Outline: as §2

Setaria viridis [12] = test: Post-emergence herbicidal effect; assay type: in vivo; conditions: 320 g/ha (dose by row order of upper half), scoring after about 3 weeks
Outline: as §2

[13] = tested on: Triticum aestivum (spring); test: Pre-emergence herbicidal effect and crop plant compatibility; assay type: in vivo; conditions: 3 weeks
Outline: as §1

Cyperus esculentus = test: Pre-emergence herbicidal effect; assay type: in vivo; conditions: 3 weeks
Outline: as §1

[14] = tested on: Triticum aestivum (spring); test: Post-emergence herbicidal effect and crop plant compatibility; assay type: in vivo; conditions: visual scoring after about 3 weeks
Outline: as §2

Zea mays [15] = test: as above; assay type: in vivo; conditions: visual scoring after about 3 weeks
Outline: as §2

Alopecurus myosuroides [16] = test: Post-emergence herbicidal effect; assay type: in vivo; conditions: 320 g/ha, visual scoring after about 3 weeks
Outline: as §2

Ipomoea purpurea [17] = test: Post-emergence herbicidal effect; assay type: in vivo; conditions: 320 g/ha (dose by row order of upper half), scoring after about 3 weeks
Outline: as §2

Compound | logp (HCOOH) [1] | ALOMY herbicidal activity in percent (Alopecurus myosuroides [4]; 320 g/ha) | AMARE herbicidal activity in percent (Amaranthus retroflexus; 320 g/ha) | AVEFA herbicidal activity in percent (Avena fatua; 320 g/ha) | ECHCG herbicidal activity in percent (Echinochloa crus-galli [5]; 320 g/ha) | LOLMU herbicidal activity in percent (Lolium multiflorum [7]; 320 g/ha) | MATIN herbicidal activity in percent (Matricaria inodora; 320 g/ha) | POLCO herbicidal activity in percent (Polygonum convolvulus; 320 g/ha) | SETVI herbicidal activity in percent (Setaria viridis [8]; 320 g/ha) | STEME herbicidal activity in percent (Stellaria media; 320 g/ha) | VERPE herbicidal activity in percent (Veronica persica; 320 g/ha) | VIOTR herbicidal activity in percent (Viola tricolor; 320 g/ha) | post-emergence efficacy ORYSA (Oryza sativa [9]; 320 g/ha) | post-emergence efficacy ECHCG (Echinochloa crus-galli [10]; 320 g/ha) | post-emergence efficacy LOLMU (Lolium multiflorum [11]; 320 g/ha) | AMARE herbicidal activity in percent (Amaranthus retroflexus; 80 g/ha) | MATIN herbicidal activity in percent (Matricaria inodora; 80 g/ha) | STEME herbicidal activity in percent (Stellaria media; 80 g/ha) | VERPE herbicidal activity in percent (Veronica persica; 80 g/ha) | VIOTR herbicidal activity in percent (Viola tricolor; 80 g/ha) | further results
O=C1CCCc2nc(NC3CCc4ccccc43)ncc21 (racemic) [2.91] | oily; logp (HCOOH): 2.62; 1H-NMR (CDCl3, 400 MHZ, δ in ppm): 1.25 (m, 1H, 1H | 90% | 100% | 80% | 100% | 100% | 100% | 80% | 100% | 100% | 100% | 100% | 0% | 100% | 100% |  |  |  |  |  | ORYSA herbicidal activity in percent (Oryza sativa [2]): 20%; ZEAMX herbicidal activity in percent (Zea mays [3]; 320 g/ha): 20%; ABUTH herbicidal activity in percent (Abutilon theophrasti): 100%; PHBPU herbicidal activity in percent (Ipomoea purpurea [6]): 100%; post-emergence efficacy SETVI (Setaria viridis [12]): 90%
O=C1CCCc2nc(N[C@@H]3CCCc4c(F)cccc43)ncc21 [2.13] |  | 100% | 100% | 90% | 100% | 100% | 100% | 100% |  | 100% | 100% | 100% | 0% | 100% |  | 100% | 100% | 100% | 100% | 100% | TRZAS herbicidal activity in percent ([13]; 80 g/ha): 0%; TRZAS herbicidal activity in percent ([13]; 320 g/ha): 10%; ZEAMX herbicidal activity in percent (Zea mays [3]; 80 g/ha): 0%; CYPES herbicidal activity in percent (Cyperus esculentus; 80 g/ha): 100%; CYPES herbicidal activity in percent (Cyperus esculentus; 320 g/ha): 100%; ECHCG herbicidal activity in percent (Echinochloa crus-galli [5]; 80 g/ha): 100%; POLCO herbicidal activity in percent (Polygonum convolvulus; 80 g/ha): 100%; SETVI herbicidal activity in percent (Setaria viridis [8]; 80 g/ha): 100%; post-emergence efficacy ORYSA (Oryza sativa [9]; 80 g/ha): 0%; post-emergence efficacy TRZAS ([14]; 80 g/ha): 10%; post-emergence efficacy TRZAS ([14]; 320 g/ha): 20%; post-emergence efficacy ZEAMX (Zea mays [15]; 80 g/ha): 10%; post-emergence efficacy ALOMY (Alopecurus myosuroides [16]): 90%; post-emergence efficacy ECHCG (Echinochloa crus-galli [10]; 80 g/ha): 90%; post-emergence efficacy PHBPU (Ipomoea purpurea [17]): 100%; post-emergence efficacy SETVI (Setaria viridis [12]): 100%
CC(=O)c1cnc(N[C@@H]2CCOc3ccccc32)nc1 [1.4] | oily; logp (HCOOH): 2.03; 1H-NMR (CDCL3, 400 MHZ, δ in ppm): 2.15 (m, 1H, 1H | 100% | 100% | 100% | 90% |  | 100% | 100% | 90% | 100% | 100% | 100% |  |  |  | 100% | 100% | 90% | 100% | 100% | ALOMY herbicidal activity in percent (Alopecurus myosuroides [4]; 80 g/ha): 100%; AVEFA herbicidal activity in percent (Avena fatua; 80 g/ha): 100%; CYPES herbicidal activity in percent (Cyperus esculentus; 80 g/ha): 80%; CYPES herbicidal activity in percent (Cyperus esculentus; 320 g/ha): 100%; PHBPU herbicidal activity in percent (Ipomoea purpurea [6]): 100%; POLCO herbicidal activity in percent (Polygonum convolvulus; 80 g/ha): 100%
Cc1ccc2c(c1)[C@H](Nc1ncc3c(n1)COCC3=O)[C@@H](C)C2 [2.97] | oily; logp (HCOOH): 3.26; 1H-NMR (CDCl3, 400 MHZ, δ in ppm): ): 1.25 (t, 3H, | 100% | 100% | 100% | 100% | 100% | 100% | 100% | 100% | 100% | 100% | 100% |  | 100% | 100% | 100% | 100% | 100% | 100% | 100% | TRZAS herbicidal activity in percent ([13]; 80 g/ha): 10%; TRZAS herbicidal activity in percent ([13]; 320 g/ha): 20%; ZEAMX herbicidal activity in percent (Zea mays [3]; 80 g/ha): 0%; ALOMY herbicidal activity in percent (Alopecurus myosuroides [4]; 80 g/ha): 100%; ECHCG herbicidal activity in percent (Echinochloa crus-galli [5]; 80 g/ha): 100%; POLCO herbicidal activity in percent (Polygonum convolvulus; 80 g/ha): 100%; SETVI herbicidal activity in percent (Setaria viridis [8]; 80 g/ha): 100%; post-emergence efficacy TRZAS ([14]; 80 g/ha): 0%; post-emergence efficacy TRZAS ([14]; 320 g/ha): 0%; post-emergence efficacy ALOMY (Alopecurus myosuroides [16]): 100%; post-emergence efficacy ECHCG (Echinochloa crus-galli [10]; 80 g/ha): 90%; post-emergence efficacy PHBPU (Ipomoea purpurea [17]): 100%; post-emergence efficacy SETVI (Setaria viridis [12]): 80%
Cc1ccc2c(c1)[C@H](Nc1ncc3c(n1)CC(C(F)(F)F)CC3=O)[C@@H](C)C2 (stereo partly drawn) [2.46] | oily; logp (HCOOH): 3.24; 1H-NMR (CDCl3, 400 MHZ, δ in ppm): 1.25 (t, 3H, CH3); | 90% | 100% |  | 100% | 100% | 100% | 100% | 90% | 100% | 100% | 100% | 20% |  | 100% | 90% | 90% | 100% | 100% | 100% | TRZAS herbicidal activity in percent ([13]; 80 g/ha): 0%; TRZAS herbicidal activity in percent ([13]; 320 g/ha): 0%; ZEAMX herbicidal activity in percent (Zea mays [3]; 80 g/ha): 0%; ZEAMX herbicidal activity in percent (Zea mays [3]; 320 g/ha): 0%; ABUTH herbicidal activity in percent (Abutilon theophrasti): 80%; ALOMY herbicidal activity in percent (Alopecurus myosuroides [4]; 80 g/ha): 90%; ECHCG herbicidal activity in percent (Echinochloa crus-galli [5]; 80 g/ha): 90%; LOLMU herbicidal activity in percent (Lolium multiflorum [7]; 80 g/ha): 100%; SETVI herbicidal activity in percent (Setaria viridis [8]; 80 g/ha): 90%; post-emergence efficacy ORYSA (Oryza sativa [9]; 80 g/ha): 10%; post-emergence efficacy TRZAS ([14]; 80 g/ha): 10%; post-emergence efficacy TRZAS ([14]; 320 g/ha): 10%; post-emergence efficacy ZEAMX (Zea mays [15]; 80 g/ha): 0%; post-emergence efficacy ZEAMX (Zea mays [15]; 320 g/ha): 0%; post-emergence efficacy ALOMY (Alopecurus myosuroides [16]): 100%; post-emergence efficacy LOLMU (Lolium multiflorum [11]; 80 g/ha): 80%
